# BindingDB's records for doi:10.1021/jm00089a013 (Merck Sharp and Dohme Research Laboratories, 1992)
# Experiment: In vitro binding affinity against sigma receptor by using [3H]-DTG ([3H]-6) as radioligand in guinea pig cerebellum.
row,SMILES,IC50 [nM]
1,c1ccc(CCN2CCC3(CCCc4ccccc43)CC2)cc1,5
2,CCCCN1CCC2(CCCCc3ccccc32)CC1,4.8
3,Oc1ccc2c(c1)C1(CCC2)CCN(Cc2ccccc2)CC1,69
4,c1ccc(CCN2CCC3(CCc4ccccc43)CC2)cc1,2.8
5,c1ccc2c(c1)CCCC21CCN(CC2CCCO2)CC1 (stereo not given),5.5
6,CCCCCCN1CCC2(CCCc3ccccc32)CC1,2.9
7,c1ccc(CN2CCC3(CCCCc4ccccc43)CC2)cc1,6.8
8,CCCCN1CCC2(CCc3ccccc32)CC1,2
9,c1ccc(CN2CCC3(CCc4ccccc43)CC2)nc1,16
10,C=CCN1CCC2(CCCc3ccccc32)CC1,18
11,C=CCCN1CCC2(CCCc3ccccc32)CC1,6.6
12,c1ccc2c(c1)CCCC21CCN(CC2CC2)CC1,10

# More lines, now with the values ahead:
row,IC50 [nM],SMILES
1,3.5,COc1ccc(CN2CCC3(CCc4ccccc43)CC2)cc1
2,5.9,Cc1ccc(CN2CCC3(CCc4ccccc43)CC2)cc1
3,9.5,c1coc(CN2CCC3(CCCc4ccccc43)CC2)c1
4,14,O=[N+]([O-])c1ccc(CN2CCC3(CCCc4ccccc43)CC2)cc1
5,1.7,COc1ccc(CN2CCC3(CCCc4ccccc43)CC2)cc1
6,6.3,c1csc(CN2CCC3(CCCc4ccccc43)CC2)c1
7,5.5,Cc1ccc2c(c1)CCCC21CCN(Cc2ccccc2)CC1
8,6.8,Clc1ccc(CN2CCC3(CCCc4ccccc43)CC2)cc1
